Reference: patent publication US11802120B2, “Fused cyclic urea derivatives as CRHR2 antagonist” (RaQualia Pharma Inc., priority 2018, dated 2023)

Biological target: T1, human CRHR2-alpha (Homo sapiens, UniProt Q13324)
T1 sequence (Q13324 1-411): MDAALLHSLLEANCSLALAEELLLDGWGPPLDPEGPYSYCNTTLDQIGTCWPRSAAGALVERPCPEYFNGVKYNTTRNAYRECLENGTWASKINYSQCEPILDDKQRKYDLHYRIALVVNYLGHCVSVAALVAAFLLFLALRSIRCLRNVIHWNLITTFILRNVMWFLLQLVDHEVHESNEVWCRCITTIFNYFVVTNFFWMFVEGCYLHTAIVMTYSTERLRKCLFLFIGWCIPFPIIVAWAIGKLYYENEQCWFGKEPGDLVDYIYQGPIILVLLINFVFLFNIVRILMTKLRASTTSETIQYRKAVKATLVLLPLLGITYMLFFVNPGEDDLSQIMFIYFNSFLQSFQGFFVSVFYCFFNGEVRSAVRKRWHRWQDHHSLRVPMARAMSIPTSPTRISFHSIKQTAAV
Assay: cAMP functional assay for human CRHR2 (LANCE Ultra cAMP, TR-FRET)
Format: cell-based
Details: CHO-K1 cells expressing human CRHR2-alpha, agonist human urocortin2 at EC80, cAMP; read-out: IC50 against CRHR2
Outline: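 CHO-K1 stable lines; 4,000 cells/well; compound 30 min, 25° C; EC80 agonist (human urocortin2 → CRHR2, CRF → CRHR1) 30 min, 25° C; buffer HBSS/0.1% BSA/0.5 mM IBMX/5 mM Hepes pH 7.4; Eu-cAMP tracer + ULight antibody 60 min; TR-FRET read; IC50 from % inhibition curves.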

| IC50 [nM] | Structure (SMILES) |
| --- | --- |
| < 300 | CC(C)(O)C(=O)Nc1ccc(-n2c(=O)n(C[C@H]3CC[C@H](NC(=O)c4cc(Cl)cnc4C(F)F)CC3)c3ccccc32)cn1 [Example 669, 5-chloro-2-(difluoromethyl)-N-((1r,4r)-4-((3-(6-(2-hydroxy-2-methylpropana-mido)pyridin-3-yl)-2-oxo-2,3-dihydro-1H-benzo[d]imidazol-1-yl)methyl)cyclo-hexyl)nicotinamide] |
| < 300 | Cc1ncc(Cl)cc1C(=O)N[C@H]1CC[C@H](Cn2c(=O)n(-c3ccc(NCCC(F)F)nc3)c3ccccc32)CC1 [Example 480, 5-chloro-N-((1r,4r)-4-((3-(6-((3,3-difluoropropyl)amino)pyridin-3-yl)-2-oxo-2,3-dihydro-1H-benzo[d]imidazol-1-yl)methyl)cyclo-hexyl)-2-methylnicotinamide] |
| < 300 | Cc1ncc(Cl)cc1C(=O)N[C@H]1CC[C@H](Cn2c(=O)n(-c3ccc(NC[C@H]4CCCO4)nc3)c3ccccc32)CC1 [Example 110, 5-chloro-2-methyl-N-((1R,4r)-4-((2-oxo-3-(6-((((R)-tetra-hydrofuran-2-yl)methyl)amino)pyridin-3-yl)-2,3-dihydro-1H-benzo[d]imidazol-1-yl)methyl)cyclohexyl)nicotinamide] |
| < 300 | Cc1ncc(Cl)cc1C(=O)N[C@H]1CC[C@H](Cn2c(=O)n(-c3cnc4c(c3)OCC(=O)N4C)c3ccccc32)CC1 [Example 196, 5-chloro-2-methyl-N-((1r,4r)-4-((3-(4-methyl-3-oxo-3,4-dihydro-2H-pyrido[3,2-b][1,4]oxazin-7-yl)-2-oxo-2,3-dihydro-1H-benzo[d]imidazol-1-yl)methyl)cyclohexyl) nicotinamide] |
| < 300 | O=C(N[C@H]1CC[C@H](Cn2c(=O)n(-c3cnc4[nH]ccc4c3)c3ccccc32)CC1)c1cc(Cl)cnc1C(F)(F)F [Example 424, 5-chloro-N-((1r,4r)-4-((2-oxo-3-(1H-pyrrolo[2,3-b]pyridin-5-yl)-2,3-dihydro-1H-benzo [d]imidazol-1-yl)methyl)cyclo-hexyl)-2-(trifluoromethyl) nicotinamide] |
| < 300 | Cc1ncc(Cl)cc1C(=O)N[C@H]1CC[C@H](Cn2c(=O)n(-c3ccc4cncn4c3)c3ccccc32)CC1 [Example 274, 5-chloro-N-((1r,4r)-4-((3-(imidazo[1,5-a]pyridin-6-yl)-2-oxo-2,3-dihydro-1H-benzo [d]imidazol-1-yl)methyl)cyclohexyl)-2-methylnico-tinamide] |
| < 300 | O=C(N[C@H]1CC[C@H](Cn2c(=O)n(-c3ccc(N[C@H]4CCOC4)nc3)c3ccccc32)CC1)c1cc(Cl)cnc1C(F)F [Example 372, 5-chloro-2-(difluoromethyl)-N-((1S,4r)-4-((2-oxo-3-(6-(((S)-tetrahydrofuran-3-yl)amino)pyridin-3-yl)-2,3-dihydro-1H-benzo[d]imidazol-1-yl)methyl)cyclohexyl)nicotinamide] |
| < 300 | CNC(=O)c1ccc(-n2c(=O)n(C[C@H]3CC[C@H](NC(=O)c4cc(Cl)cnc4COC)CC3)c3ccccc32)cn1 [Example 335, 5-(3-(((1r,4r)-4-(5-chloro-2-(methoxymethyl)nico-tinamido)cyclohexyl)methyl)-2-oxo-2,3-dihydro-1H-benzo[d]imidazol-1-yl)-N-methylpicolinamide] |
| < 300 | Cc1ncc(Cl)cc1C(=O)N[C@H]1CC[C@H](Cn2c(=O)n(-c3ccc(-c4ccon4)cc3)c3ccccc32)CC1 [Example 445, 5-chloro-N-((1r,4r)-4-((3-(4-(isoxazol-3-yl)phenyl)-2-oxo-2,3-dihydro-1H-benzo[d]imidazol-1-yl)methyl)cyclo-hexyl)-2-methylnicotinamide] |
| < 300 | O=C(N[C@H]1CC[C@H](Cn2c(=O)n(-c3cccc(-c4cn[nH]c4)c3)c3ccccc32)CC1)c1cc(Cl)cnc1C(F)F [Example 697, N-((1r,4r)-4-((3-(3-(1H-pyrazol-4-yl)phenyl)-2-oxo-2,3-dihydro-1H-benzo[d]imidazol-1-yl)methyl)cyclohexyl)-5-chloro-2-(difluoromethyl)nicotinamide] |
| < 300 | CNC(=O)c1cc(C)c(-n2c(=O)n(C[C@H]3CC[C@H](NC(=O)c4cc(Cl)cnc4C)CC3)c3ccccc32)cn1 [Example 199, 5-(3-(((1r,4r)-4-(5-chloro-2-methylnicotinamido)cyclo-hexyl)methyl)-2-oxo-2,3-dihydro-1H-benzo[d]imidazol-1-yl)-N,4-dimethylpicolinamide] |
| < 300 | CNc1ccc(-n2c(=O)n(C[C@H]3CC[C@H](NC(=O)c4cc(Cl)cnc4C)CC3)c3cc(F)ccc32)cn1 [Example 624, 5-chloro-N-((1r,4r)-4-((6-fluoro-3-(6-(methylamino)pyridin-3-yl)-2-oxo-2,3-dihydro-1H-benzo[d]imidazol-1-yl)methyl)cyclohexyl)-2-methylnicotinamide] |
| < 300 | Cc1ncc(Cl)cc1C(=O)N[C@H]1CC[C@H](Cn2c(=O)n(-c3ccc(OCC4CC4)nc3)c3ccccc32)CC1 [Example 112, 5-chloro-N-(4-((3-(6-(cyclopropylmethoxy)pyridin-3-yl)-2-oxo-2,3-dihydro-1H-benzo [d]imidazol-1-yl)methyl)cyclohexyl)-2-methylnicotinamide] |
| < 300 | Cc1ncc(Cl)cc1C(=O)N[C@H]1CC[C@H](Cn2c(=O)n(-c3ccc(C=O)cc3C#N)c3ccccc32)CC1 [Example 306, 5-chloro-N-((1r,4r)-4-((3-(2-cyano-4-formylphenyl)-2-oxo-2,3-dihydro-1H-benzo[d]imidazol-1-yl)methyl)cyclo-hexyl)-2-methylnicotinamide] |
| < 300 | O=C(NC1CC1)c1ccc(-n2c(=O)n(C[C@H]3CC[C@H](NC(=O)c4cc(Cl)cnc4C(F)F)CC3)c3ccccc32)cn1 [Example 585, 5-(3-(((1r,4r)-4-(5-chloro-2-(difluoromethyl)nicotinamido)cyclohexyl)methyl)-2-oxo-2,3-dihydro-1H-benzo[d]imidazol-1-yl)-N-cyclopropyl-picolinamide] |
| < 300 | Cc1ncc(Cl)cc1C(=O)N[C@H]1CC[C@H](Cn2c(=O)n(-c3cncc(N(C)C)c3)c3ccccc32)CC1 [Example 483, 5-chloro-N-((1r,4r)-4-((3-(5-(dimethylamino)pyridin-3-yl)-2-oxo-2,3-dihydro-1H-benzo [d]imidazol-1-yl)methyl)cyclo-hexyl)-2-methylnicotinamide] |
| < 300 | Cc1ncc(Cl)cc1C(=O)N[C@H]1CC[C@H](Cn2c(=O)n(-c3ccccc3[N+](=O)[O-])c3ccccc32)CC1 [Example 233, 5-chloro-2-methyl-N-((1r,4r)-4-((3-(2-nitrophenyl)-2-oxo-2,3-dihydro-1H-benzo[d]imidazol-1-yl)methyl)cyclo-hexyl)nicotinamide] |
| < 300 | Cc1ncc(Cl)cc1C(=O)N[C@H]1CC[C@H](Cn2c(=O)n(-c3ccc4c(N)n[nH]c4c3)c3ccccc32)CC1 [Example 197, N-((1r,4r)-4-((3-(3-amino-1H-indazol-6-yl)-2-oxo-2,3-dihydro-1H-benzo[d]imidazol-1-yl)methyl)cyclohexyl)-5-chloro-2-methylnicotinamide] |
| < 300 | C[C@H](O)C(=O)Nc1ccc(-n2c(=O)n(C[C@H]3CC[C@H](NC(=O)c4cc(Cl)cnc4C(F)F)CC3)c3ccccc32)cn1 [Example 671, 5-chloro-2-(difluoromethyl)-N-((1S,4r)-4-((3-(6-((S)-2-hydroxypropanamido)pyridin-3-yl)-2-oxo-2,3-dihydro-1H-benzo[d]imidazol-1-yl)methyl)cyclohexyl)nicotinamide] |
| < 300 | Cc1ncc(Cl)cc1C(=O)N[C@H]1CC[C@H](Cn2c(=O)n(-c3ccc(-c4cncs4)cc3)c3ccccc32)CC1 [Example 580, 5-chloro-2-methyl-N-((1r,4r)-4-((2-oxo-3-(4-(thiazol-5-yl)phenyl)-2,3-dihydro-1H-benzo[d]imidazol-1-yl)methyl)cyclohexyl)nicotinamide] |
| < 300 | O=C(NCCF)c1ccc(-n2c(=O)n(C[C@H]3CC[C@H](NC(=O)c4cc(Cl)cnc4C(F)(F)F)CC3)c3ccccc32)cn1 [Example 410, 5-(3-(((1r,4r)-4-(5-chloro-2-(trifluoromethyl)nicotinamido)cyclohexyl)methyl)-2-oxo-2,3-dihydro-1H-benzo[d]imidazol-1-yl)-N-(2-fluoroethyl) picolinamide] |
| < 300 | CNC(=O)c1ccc(-n2c(=O)n(C[C@H]3CC[C@H](NC(=O)c4cc(Cl)cnc4Cl)CC3)c3ccccc32)cn1 [Example 542, 5-(3-(((1r,4r)-4-(2,5-dichloronicotinamido)cyclohexyl)methyl)-2-oxo-2,3-dihydro-1H-benzo[d]imidazol-1-yl)-N-methylpicolinamide] |
| < 300 | O=C(N[C@H]1CC[C@H](Cn2c(=O)n(-c3ccc4ncccc4c3)c3ncccc32)CC1)c1cc(Cl)cnc1C(F)F [Example 362, 5-chloro-2-(difluoromethyl)-N-((1r,4r)-4-((2-oxo-3-(quinolin-6-yl)-2,3-dihydro-1H-imidazo[4,5-b]pyridin-1-yl)methyl)cyclohexyl)nicotinamide] |
| < 300 | Cc1ncc(Cl)cc1C(=O)N[C@H]1CC[C@H](Cn2c(=O)n(-c3cnc4cccnc4c3)c3ccccc32)CC1 [Example 442, N-((1r,4r)-4-((3-(1,5-naph-thyridin-3-yl)-2-oxo-2,3-dihydro-1H-benzo[d]imidazol-1-yl)methyl)cyclo-hexyl)-5-chloro-2-methyl-nicotinamide] |
